Columns and labels:
[1] = molecular target: T1, Full length WRN protein (aa 2-1432) (Homo sapiens (Human), UniProt Q14191); assay: WRN ATPase ADP-Glo biochemical assay, Assay Format A (10 μM ATP); settings: 0.25 nM WRN, 100 nM C6.18 ssDNA, 30 min preincubation, read-out: ATPase ADPGlo AC50 (uM)- Assay Format A
In short: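 ADP-Glo luminescence measured hydrolysis of ATP by purified, baculovirus-expressed N-terminally tagged full-length WRN. Enzyme (0.5 nM) was preincubated 30 min with compound, then 200 nM ssDNA C6.18 plus 20 μM ATP were added (pre-mix levels) for 30 min at RT. IC50s come from four-parameter fits, geometric mean of at least two trials.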

[2] = molecular target: T1, Full length WRN protein (aa 2-1432); assay: WRN ATPase ADP-Glo biochemical assay, Assay Format B (100 μM ATP); settings: 0.25 nM WRN, 100 nM C6.18 ssDNA, 60 min preincubation, read-out: ATPase ADPGlo AC50 (uM)- Assay Format B
[3] = test system: HCT116 cells; assay: HCT116 (MSI) 7 day viability, CellTiter Glo; format: cell-based; settings: Homo sapiens, HCT-116, 168 h, 7 days, read-out: HCT116 (MSI) Viability 7 Day Abs AC50
In short: (§1)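 HCT116 seeded at 50 cells/well and HT29 at 500 cells/well onto compound plates (10-point 3-fold dilutions from 10 mM DMSO stock), incubated 7 days at 37 °C, 5% CO2.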

[4] = test system: HT29 cells; assay: HT29 (MSS) 7 day viability, CellTiter Glo; format: cell-based; settings: Homo sapiens, HT-29, 168 h, 7 days, read-out: HT29 (MSS) Viability 7 Day CTGAbs AC50
In short: as §1

T1 sequence (Q14191 2-1432): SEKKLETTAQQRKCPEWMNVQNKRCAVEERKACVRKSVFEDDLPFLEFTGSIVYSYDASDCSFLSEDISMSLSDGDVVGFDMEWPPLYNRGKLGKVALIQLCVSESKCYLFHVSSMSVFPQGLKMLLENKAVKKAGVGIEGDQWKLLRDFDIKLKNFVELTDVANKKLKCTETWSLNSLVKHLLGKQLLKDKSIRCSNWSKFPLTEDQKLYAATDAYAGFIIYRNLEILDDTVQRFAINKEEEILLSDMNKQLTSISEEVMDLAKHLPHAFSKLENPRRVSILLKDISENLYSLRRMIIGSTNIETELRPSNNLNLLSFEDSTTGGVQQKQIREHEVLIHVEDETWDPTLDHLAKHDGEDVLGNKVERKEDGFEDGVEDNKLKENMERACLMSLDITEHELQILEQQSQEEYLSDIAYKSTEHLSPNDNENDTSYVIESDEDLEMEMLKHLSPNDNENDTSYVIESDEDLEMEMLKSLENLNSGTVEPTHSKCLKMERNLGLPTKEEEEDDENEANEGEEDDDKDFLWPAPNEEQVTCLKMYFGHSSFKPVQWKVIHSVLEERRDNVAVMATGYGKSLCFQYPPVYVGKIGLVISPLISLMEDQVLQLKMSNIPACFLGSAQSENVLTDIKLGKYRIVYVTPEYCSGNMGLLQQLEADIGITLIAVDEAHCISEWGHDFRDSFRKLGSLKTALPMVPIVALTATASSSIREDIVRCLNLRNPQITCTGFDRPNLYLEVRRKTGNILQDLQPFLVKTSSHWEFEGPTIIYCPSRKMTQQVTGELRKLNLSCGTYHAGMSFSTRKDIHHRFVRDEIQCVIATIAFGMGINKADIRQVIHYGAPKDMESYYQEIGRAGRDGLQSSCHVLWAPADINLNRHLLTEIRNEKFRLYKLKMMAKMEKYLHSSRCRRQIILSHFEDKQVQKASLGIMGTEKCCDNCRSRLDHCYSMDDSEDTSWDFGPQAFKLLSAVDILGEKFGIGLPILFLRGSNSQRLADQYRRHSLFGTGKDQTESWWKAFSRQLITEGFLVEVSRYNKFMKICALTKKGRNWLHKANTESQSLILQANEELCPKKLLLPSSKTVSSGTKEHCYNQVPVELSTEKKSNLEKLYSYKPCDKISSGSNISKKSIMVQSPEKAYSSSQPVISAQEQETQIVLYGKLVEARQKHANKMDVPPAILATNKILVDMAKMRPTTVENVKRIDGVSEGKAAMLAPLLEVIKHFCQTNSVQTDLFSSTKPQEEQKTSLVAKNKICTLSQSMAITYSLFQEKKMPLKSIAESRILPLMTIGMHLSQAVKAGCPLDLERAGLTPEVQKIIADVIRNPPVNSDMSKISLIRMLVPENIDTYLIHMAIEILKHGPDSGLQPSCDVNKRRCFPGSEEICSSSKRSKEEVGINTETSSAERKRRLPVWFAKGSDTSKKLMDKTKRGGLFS

AC50 [1] [µM]	AC50 [2] [µM]	SMILES	AC50 [3] [µM]	AC50 [4] [µM]
0.005 to 0.015	0.015 to 0.055	C=CC(=O)N1CCc2nn(-c3ccc(C4CCC4)cc3O)c3c2C(C1)N(C(=O)c1ccc(OC(F)(F)F)cc1)CC3 (stereo not shown) [Compound 107, 1-(2-(4-cyclobutyl-2-hydroxyphenyl)-5-(4-(trifluoromethoxy)benzoyl)-2,3,4,5,5a,6,8,9-octahydro-7H-1,2,5,7-tetraazabenzo[cd]azulen-7-yl)prop-2-en-1-one]	0.1 to 0.25	> 3
0.0015 to 0.005	0.015 to 0.055	Nc1cc(C(F)(F)F)ncc1C(=O)N1CCc2c3c(nn2-c2ccc(C4CCC4)cc2)CCN(C(=O)/C=C\Cl)CC31 (stereo not shown) [Compound 243, 1-(5-(4-amino-6-(trifluoromethyl)nicotinoyl)-2-(4-cyclobutylphenyl)-2,3,4,5,5a,6,8,9-octahydro-7H-1,2,5,7-tetraazabenzo[cd]azulen-7-yl)-3-chloroprop-2-en-1-one]	0.001 to 0.1	1 to 3
0.0015 to 0.005	0.015 to 0.055	C=CC(=O)N1CCOc2nn(-c3ccc(C4CCC4)cc3)c3c2C(C1)N(C(=O)c1ccc(Br)c2[nH]cnc12)CC3 (stereo not shown) [Compound 41, 1-(5-(7-bromo-1H-benzo[d]imidazole-4-carbonyl)-2-(4-cyclobutylphenyl)-2,3,4,5,5a,6,8,9-octahydro-7H-10-oxa-1,2,5,7-tetraazacycloocta[cd]inden-7-yl)prop-2-en-1-one]	0.001 to 0.1	> 3
0.005 to 0.015	> 0.055	COC/C=C/C(=O)N1CCc2nn(-c3ccc(C4CCC4)cc3O)c3c2C(C1)N(C(=O)c1cnc(C(F)(F)F)cc1N)CC3 (stereo not shown) [Compound 239, 1-(5-(4-amino-6-(trifluoromethyl)nicotinoyl)-2-(4-cyclobutyl-2-hydroxyphenyl)-2,3,4,5,5a,6,8,9-octahydro-7H-1,2,5,7-tetraazabenzo[cd]azulen-7-yl)-4-methoxybut-2-en-1-one]	0.1 to 0.25	> 3
< 0.0015	0.005 to 0.015	C=CC(=O)N1CCc2nn(-c3ccc(C45CC(C4)C5)cc3)c3c2C(C1)N(C(=O)c1cnc(C(F)(F)F)cc1N)CC3 (stereo not shown) [Compound 133, 1-(5-(4-amino-6-(trifluoromethyl)nicotinoyl)-2-(4-(bicyclo[1.1.1]pentan-1-yl)phenyl)-2,3,4,5,5a,6,8,9-octahydro-7H-1,2,5,7-tetraazabenzo[cd]azulen-7-yl)prop-2-en-1-one]	0.001 to 0.1	> 3
< 0.0015	0.0015 to 0.005	C=CC(=O)N1CCc2nn(-c3ccc(C4CCC4)cc3C)c3c2C(C1)N(C(=O)c1cnc(C(F)(F)F)cc1N)CC3 (stereo not shown) [Compound 240, 1-(5-(4-amino-6-(trifluoromethyl)nicotinoyl)-2-(4-cyclobutyl-2-methylphenyl)-2,3,4,5,5a,6,8,9-octahydro-7H-1,2,5,7-tetraazabenzo[cd]azulen-7-yl)prop-2-en-1-one]	0.001 to 0.1	> 3
< 0.0015	0.015 to 0.055	C=CC(=O)N1CCOc2nn(-c3ccc(C4CC4)cc3)c3c2C(C1)N(C(=O)c1ccc(Br)c2[nH]cnc12)CC3 (stereo not shown) [Compound 49, 1-(5-(7-bromo-1H-benzo[d]imidazole-4-carbonyl)-2-(4-cyclopropylphenyl)-2,3,4,5,5a,6,8,9-octahydro-7H-10-oxa-1,2,5,7-tetraazacycloocta[cd]inden-7-yl)prop-2-en-1-one]	0.001 to 0.1	> 3
< 0.0015	0.005 to 0.015	C=CC(=O)N1CCc2nn(-c3ccc(C4CC4)cc3)c3c2C(C1)N(C(=O)c1cnc(C(F)(F)F)cc1N)CC3 (stereo not shown) [Compound 128, 1-(5-(4-amino-6-(trifluoromethyl)nicotinoyl)-2-(4-cyclopropylphenyl)-2,3,4,5,5a,6,8,9-octahydro-7H-1,2,5,7-tetraazabenzo[cd]azulen-7-yl)prop-2-en-1-one]	0.001 to 0.1	> 3
0.0015 to 0.005	0.015 to 0.055	C=CC(=O)N1CCOc2nn(-c3ccc(C(C)C)cc3)c3c2C(C1)N(C(=O)c1ccc(Br)c2[nH]cnc12)CC3 (stereo not shown) [Compound 46, 1-(5-(7-bromo-1H-benzo[d]imidazole-4-carbonyl)-2-(4-isopropylphenyl)-2,3,4,5,5a,6,8,9-octahydro-7H-10-oxa-1,2,5,7-tetraazacycloocta[cd]inden-7-yl)prop-2-en-1-one]	0.001 to 0.1	> 3
< 0.0015	0.015 to 0.055	C=CC(=O)N1CCOc2nn(-c3ccc(C4CC4)cc3C)c3c2C(C1)N(C(=O)c1ccc(Br)c2[nH]cnc12)CC3 (stereo not shown) [Compound 103, 1-(5-(7-bromo-1H-benzo[d]imidazole-4-carbonyl)-2-(4-cyclopropyl-2-methylphenyl)-2,3,4,5,5a,6,8,9-octahydro-7H-10-oxa-1,2,5,7-tetraazacycloocta[cd]inden-7-yl)prop-2-en-1-one]	0.25 to 0.5	> 3
0.005 to 0.015		C=CC(=O)N1Cc2nn(-c3ccc(C(C)C)cc3C)c3c2C(C1)N(C(=O)c1ccc(Br)c(O)c1)CC3 (stereo not shown) [Compound 35, 1-(6-(4-bromo-3-hydroxybenzoyl)-1-(4-isopropyl-2-methylphenyl)-1,5,5a,6,7,8-hexahydropyrazolo[3,4,5-de][1,7]naphthyridin-4(3H)-yl)prop-2-en-1-one]	0.1 to 0.25	> 3
0.015 to 0.055		C=CC(=O)N1CCn2nc(-c3ccc(C(C)C)cc3)c3c2C(C1)N(C(=O)c1ccc(Br)c(O)c1)CC3 (stereo not shown) [Compound 37, 1-(5-(4-bromo-3-hydroxybenzoyl)-2-(4-isopropylphenyl)-4,5,5a,6,8,9-hexahydro-1,5,7,9a-tetraazabenzo[cd]azulen-7(3H)-yl)prop-2-en-1-one]	> 1	> 3
0.015 to 0.055		C=CC(=O)N1CCc2nn(-c3ccc(C4CC4)cc3)c3c2C(C1)N(C(=O)c1ccc(C2(C#N)CC2)nc1)CC3 (stereo not shown) [Compound 119, 1-(5-(7-acryloyl-2-(4-cyclopropylphenyl)-3,4,5,5a,6,7,8,9-octahydro-2H-1,2,5,7-tetraazabenzo[cd]azulene-5-carbonyl)pyridin-2-yl)cyclopropane-1-carbonitrile]	> 1	> 3
< 0.0015		C=CC(=O)N1CCc2nn(-c3ccc(C4CCC4)cc3O)c3c2C(C1)N(C(=O)c1cnc(Br)c2[nH]cnc12)CC3 (stereo not shown) [Compound 137, 1-(5-(4-bromo-3H-imidazo[4,5-c]pyridine-7-carbonyl)-2-(4-cyclobutyl-2-hydroxyphenyl)-2,3,4,5,5a,6,8,9-octahydro-7H-1,2,5,7-tetraazabenzo[cd]azulen-7-yl)prop-2-en-1-one]	0.001 to 0.1	> 3
0.005 to 0.015		C=CC(=O)N1CCc2nn(-c3ccc(C4CC4)cc3)c3c2C(C1)N(C(=O)c1ccc(C(F)F)nc1)CC3 (stereo not shown) [Compound 126, 1-(2-(4-cyclopropylphenyl)-5-(6-(difluoromethyl)nicotinoyl)-2,3,4,5,5a,6,8,9-octahydro-7H-1,2,5,7-tetraazabenzo[cd]azulen-7-yl)prop-2-en-1-one]	0.25 to 0.5	> 3

Reference: patent US20250346600A1, “TRICYCLIC DERIVATIVES AND RELATED USES” (MOMA Therapeutics, Inc., priority 2023, published 2025)
